Entries after “also recorded” stand apart in the source; their conditions may differ. Each block holds one compound with its values, some of them ahead of it.
What was measured:
[1] = tested on: islets; test: Viability of isolated islets under hypoxia with CPO; type: cell-based, Sprague Dawley Rats; conditions: 5 mg/ml or 10 mg/ml in culture media or culture media/PBS mixture; p<0.01 relative to 0% O2 without POGS
Protocol: (§1) Islets were obtained from male Sprague Dawley Rats (300-350 g) and cultured in vitro overnight at 37° C., 5% CO2. Supplemented CMRL media (Gibco) incubated at 0% O2 overnight in a hypoxia chamber (XVivo, Biospherix) in order to allow media to deoxygenate. Dissolved oxygen levels were measured in the media using dissolved oxygen meter (Oakton D110).
(§2) For all viability studies, islets were stained with the following probes to determine viability status based on positive staining: Calcein Blue: live; propidium iodide: dead; and YoPro-1; apoptotic. Islet function was evaluated by looking at glucose stimulated insulin response (GSIR). Islet stimulation index (insulin release at high glucose concentration/insulin release at low glucose concentrations) or SI was calculated after insulin release was quantified using an ELISA.
About 60% and 70% of islets were alive and viable immediately after isolation and after the 24 hour culture at 20% O2, respectively. However, the proportion of live/viable islets dropped to less than 30% after 24 hour culture at 0% O2. Islets cultured for 24 hours at 0% O2 were rescued by 5 mg/ml or 10 mg/ml CPO (“POGS”) in culture media or in the culture media/PBS mixture (p<0.01 relative to 0% O2 without POGS).

[2] = tested on: islets; test: Glucose-stimulated insulin release (GSIR) of islets cultured at 0% O2 with CPO; type: cell-based, Sprague Dawley Rats; conditions: added to the culture media; p<0.05
Protocol: as §1, §2
In order to be useful for diabetes treatment, the isolated islets must retain the ability to produce insulin, not just maintain viability. Thus, the insulin release characteristics of islets cultured at 0% O2 in the presence of CPO was investigated by measuring the glucose-stimulated insulin release (GSIR).

[3] = Oxygen release from POGS (dissolved oxygen in media, hypoxia chamber); type: physicochemical
Protocol: as §1
Phosphate-complexed calcium peroxide (PcCPO) was synthesized by mixing calcium peroxide (CPO) with phosphate-buffered saline at 10 mg/mL and incubating at 37° C. overnight. CP or PcCP was dissolved in a 1.5% UPLVM solution and alginate microcapsules were produced as described above. All oxygen concentration assays were performed in a controlled hypoxic chamber at 37° C. 5% CO2 0% ambient O2 to ensure that the data obtained was not confounded by changes in ambient O2 during the experiment.
[…] No islets were used in this experiment. […] When a 1:1 mixture of culture media and PBS was used, unencapsulated CPO (“PGS/PBS”) caused a rapid rise to 20% dissolved oxy gen which was sustained for at least an hour before gradually falling to 10%.

[4] = tested on: islets; test: Effect of PFCs on islet viability in hypoxic culture; type: cell-based, Sprague Dawley rats; conditions: for Apoptotic (%) / Dead (%) / Live (%): 0% O2, 24 hours
Protocol: as §2
(§3) Islets from Sprague Dawley rats were isolated, cultured, and assessed as described above. Three concentrations of perfluorodecalin (“PFD”) were added to the culture media: 0.1 ml PFC/ml media (“low PFC”), 0.375 ml PFC/ml media (“medium PFC”), and 0.75 ml PFC/ml media (“high PFC”).
In a second experiment, islets were plated under 0% or 20% oxygen conditions, as outlined above. Hypoxic islets were supplemented with low, medium, or high PFC levels, charged for 15 minutes in 40% O2 prior to plating. Islet viability was assessed as described above.

[5] = PFC oxygen content and release in culture media; type: physicochemical
Protocol: as §3
A first experiment was performed under 20% and 0% oxygen culture conditions in the absence of islets to characterize the oxygen release rates of various PFC concentrations and under different PFC-oxygen charging conditions. […] The PFCs were charged for 15 minutes in 40% O2 prior to plating.

[6] = tested on: macrophages; test: Macrophage attachment to microcapsules cultured with macrophages; type: cell-based; conditions: incorporated in 2.5% UPLVM microcapsules with porcine islet cells
Protocol: Porcine islet cells were encapsulated to 2.5% UPLVM microcapsules using the methods described above. One set of microcapsules incorporated CXCL12/SLF-1 to investigate the locally immunosuppressive effects of this immunorepellant. Microcapsules were then cultured in the presence of macrophages.

[7] = medium PFC 0.375 ml PFC/ml media

Compound: [Ca+2].[O-][O-] [CPO, calcium peroxide]
Viability of islets cultured 24 hours at 0% O2 [1]: rescued
Effect on reduction of GSIR in islets cultured 24 hrs at 0% O2 [2]: significantly reversed this reduction
Dissolved oxygen content ([3]; unencapsulated CPO 10 mg/ml in 1:1 culture media and PBS, after gradual fall): 10%
Dissolved oxygen content ([3]; unencapsulated CPO 10 mg/ml in 1:1 culture media and PBS, rapid rise, sustained at least an hour): 20%
Dissolved oxygen content ([3]; unencapsulated CPO 10 mg/ml in culture media, hypoxia chamber, immediate and sustained): about 40%

Time for oxygen content to fall from 40% to the ambient 20% ([5]; charged 15 to 90 minutes in 40% O2, added to culture media at 20% O2): ≤ 10 min
O2 release profile under hypoxic conditions ([5]; charged 15 minutes in 40% O2): prolonged O2 release profile
Compound: FC1(F)C(F)(F)C(F)(F)C2(F)C(F)(F)C(F)(F)C(F)(F)C(F)(F)C2(F)C1(F)F (centres unmarked) [PFC, perfluorodecalin]
Apoptotic (%) ([4]; high PFC 0.75 ml PFC/ml media): 17.7%
Dead (%) ([4]; high PFC 0.75 ml PFC/ml media): 39.9%
Live (%) ([4]; high PFC 0.75 ml PFC/ml media): 42.3%
Apoptotic (%) ([4]; low PFC 0.1 ml PFC/ml media): 8.73%
Dead (%) ([4]; low PFC 0.1 ml PFC/ml media): 42.1%
Live (%) ([4]; low PFC 0.1 ml PFC/ml media): 49.2%
Apoptotic (%) [4, 7]: 0.355%
Dead (%) [4, 7]: 69.1%
Live (%) [4, 7]: 30.5%
Islet viability at 24 hours under hypoxic conditions ([4]; all PFC concentrations): significantly improved islet viability

Compound: CXCL12/SLF-1: immunorepellant incorporated into 2.5% UPLVM microcapsules
Macrophage attachment to microcapsule [6]: no macrophage attachment; also recorded: observed only for the microcapsules lacking CXCL12/SLF-1

Compound: Phosphate-complexed calcium peroxide [PcCPO]
Effect on reduction of GSIR in islets cultured 24 hrs at 0% O2 [2]: significantly reversed this reduction
Dissolved oxygen content versus uncomplexed CPO ([3]; encapsulated, 5 mg/ml): higher dissolved oxygen content than uncomplexed CPO
